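Interpolation was linear, between the two tested concentrations surrounding the appropriate level; five concentrations were tested over 48 hours in 96-well plates. The concentration for 50% growth inhibition is given as GI50. TGI is the concentration that stops growth completely.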
Assays:
Test in all cases: DTP human tumour cell line panel, 48 h
NCI-H226 lung = test system: NCI-H226 lung
SF-539 CNS = test system: SF-539 CNS
NCI-H23 lung = test system: NCI-H23 lung
A549 NSCLC = test system: A549 NSCLC
OVCAR-5 ovarian = test system: OVCAR-5 ovarian
MDA-MB-435 = test system: MDA-MB-435
HCC-2998 colon = test system: HCC-2998 colon
ACHN renal = test system: ACHN renal
COLO 205 colon = test system: COLO 205 colon
IGROV1 ovarian = test system: IGROV1 ovarian

Compound	TGI (NCI-H226 lung) [µM]	TGI (SF-539 CNS) [µM]	TGI (NCI-H23 lung) [µM]	TGI (A549 NSCLC) [µM]	TGI (OVCAR-5 ovarian) [µM]	TGI (MDA-MB-435) [µM]	TGI (HCC-2998 colon) [µM]	TGI (ACHN renal) [µM]	TGI (COLO 205 colon) [µM]	TGI (IGROV1 ovarian) [µM]	GI50 (NCI-H226 lung) [µM]	GI50 (SF-539 CNS) [nM]	GI50 (NCI-H23 lung) [µM]	GI50 (A549 NSCLC) [µM]	GI50 (OVCAR-5 ovarian) [µM]	GI50 (MDA-MB-435) [µM]	GI50 (HCC-2998 colon) [µM]	GI50 (ACHN renal) [nM]	GI50 (COLO 205 colon) [nM]	GI50 (IGROV1 ovarian) [nM]
NC1C/C(=N\O)c2c(I)sc(I)c21 (stereo not given)	34.1	20.3	30.2	46.4	31.4	27.2	38.5	33.5	40.6	30.8										
CN1C(c2ccccc2)=CC(=O)C(O)=C(c2ccccc2)S1(=O)=O	> 100	> 100	> 100	> 100	> 100	> 100	> 100	> 100	> 100	> 100										
O=C(/C=C/c1ccc(O)c(O)c1)OCCc1cccc2ccccc12	58.6	18.2	14	19.7	31.7	4.65	23.4	13.4	20.5	14.5										
CC(=O)C1=C(N=[N+]=[N-])c2cccc3cccc(c23)C1=O	64.2	42	43.4	> 100	54.8	48.5	32	32.4	31.7	32.6										
Nc1nc(Cl)cc(NCC2(CO)CCC(Cc3ccccc3)C2)n1 (stereo not given)	98.7	> 100	72.3	> 100	> 100	33.8	> 100	> 100	28.6	> 100										
CC(C)CCC1(O)O[C@H]2C[C@H]3[C@@H]4CCC5CC(=O)C=C[C@]5(C)[C@H]4CC[C@]3(C)[C@H]2[C@@H]1C (stereo not given in full)	14.8	31.7	14.8	28.2	26.2	24.5	5.86	26.6	27.8	30.3										
CC(C)OP(=O)(CN(C)/C(F)=N\C(F)(F)F)OC(C)C	> 100	> 100	> 100	> 100	> 100	> 100	> 100	> 100	> 100	> 100										
NNC(=O)c1c(Cl)c(Cl)c(Cl)c(Cl)c1-c1nc2ccccc2[nH]1	65.4	> 100	59.5	45.7	> 100	6.38	22.5	67.2	62	27.7										
COC(=O)CC1(CNC(=O)OCc2ccccc2)OCCO1	> 100	> 100	> 100	> 100	> 100	> 100	> 100	> 100	> 100	> 100										
O=C(CSc1nc(=O)[nH]c2nc[nH]c12)Nc1ccccc1	> 100	88.1	> 100	> 100	> 100	> 100	> 100	> 100	> 100	> 100										
COC(=O)C(CCC1C=CCC1)N=Cc1ccccc1 (stereo not given)	> 100	> 100	> 100	> 100	> 100	> 100	> 100	> 100	> 100	> 100										
CC(=O)O[C@H]1C[C@]2(C)C(CCC3O[C@@]32C)[C@@]2(CC(c3ccoc3)OC2O)[C@@H]1C (stereo not given in full)	> 100	> 100	> 100	> 100	> 100	> 100	> 100	> 100	> 100	> 100										
CC1(c2ccc(Cl)cc2)CC(c2ccc(Cl)cc2)=C(C#N)C(=C(C#N)C#N)N1 (stereo not given)	75.8	40.7	34.7	53.3	61.9	34.7	29.5	28	28.7	28.8										
CC(=O)OCC1OC(n2c(N)c(C#N)c(-c3ccccc3)c(C#N)c2=S)C(OC(C)=O)C(OC(C)=O)C1OC(C)=O (stereo not given)	> 100	> 100	> 100	> 100	> 100	> 100	> 100	> 100	> 100	> 100										
CC(=O)Nc1ccc(CNc2cc(=O)[nH]c(=O)[nH]2)cc1	> 100	> 100	> 100	> 100	> 100	> 100	> 100	> 100	> 100	> 100										
Cc1cc(N(CCC#N)CCC#N)ccc1/C(N=Nc1cccc([N+](=O)[O-])c1)=N/NC(=O)c1cc(Cl)ccc1O	> 100	> 100	64.1	> 100	> 100	> 100	93.4	> 100	38.8	32.8										
O=C1OCC(C#Cc2ccccc2)=C1Cl	7.13	19.5	26.9	> 100	15	42.6	15.2	6.56	7.79	> 100	3.11	2520	14	5.02	3.59	6.92	3.78	2490	2330	1880
OCCN(CCO)c1ccc2c(C(F)(F)F)cc(C(F)(F)F)nc2n1	> 100	> 100	> 100	> 100	> 100	> 100	> 100	> 100	> 100	> 100										
O=C(CN1CCN(C(=O)OCc2ccccc2)CCN(CC(=O)N2CCCCC2)CCN(C(=O)OCc2ccccc2)CC1)N1CCCCC1	36.6	27.8	> 100	> 53.5	48.8	31.2	25.2	> 54	27.2	28.9										
O=C1C2C=CC1C1C(=O)OC(=O)C21 (stereo not given)	> 100	> 100	> 100	> 100	> 100	> 100	> 100	> 100	> 100	> 100										
Cc1cc2[nH]c3c(C#N)c(-c4ccccc4)c(N=Nc4cccc(C(F)(F)F)c4)c(=O)n3c2cc1C	> 100	> 100	93.4	> 100	> 100	> 100	> 100	> 100	> 100	> 100										

— PubChem BioAssay (NCI)
